Test results taken from US20150196033A1, “PESTICIDAL COMPOSITIONS AND PROCESSES RELATED THERETO” (priority 2012, published 2015).
Where two headings read alike, the source gives them in different places.

Tests used:
Type in all cases: in vivo
[1] = test system: Beet Armyworm (BAW) (Spodoptera exigua); assay: Bioassay on Beet Armyworm (BAW), 128-well diet tray assay; conditions: Spodoptera exigua, 168 h; for mortality at 50 µg/cm2: read-out: Rating BAW (% Control (or Mortality))
Procedure: (§1) Certain molecules disclosed in this document were tested against BAW and CEW using procedures described in the following examples. In the reporting of the results, the “BAW & CEW Rating Table” was used (See Table Section).
Bioassays on BAW (Spodoptera exigua)
(§2) Trays were covered with a clear self-adhesive cover and held at 25° C., 14:10 light-dark for five to seven days. Percent mortality was recorded for the larvae in each well; activity in the eight wells was then averaged. The results are indicated in the table entitled “Table ABC: Biological Results” (See Table Section).

[2] = test system: Green Peach Aphid (GPA) (Myzus persicae); assay: Bioassay on Green Peach Aphid (GPA), foliar spray on cabbage seedlings; conditions: Myzus persicae, 72 h; 200 ppm foliar spray on cabbage seedlings, graded after three days, Abbott corrected % control; read-out: Rating GPA (% Control (or Mortality))
Procedure: Certain molecules disclosed in this document were tested against GPA using procedures described in the following example. In the reporting of the results, the “GPA Rating Table” was used (See Table Section).
Cabbage seedlings grown in 3-inch pots, with 2-3 small (3-5 cm) true leaves, were used as test substrate. The seedlings were infested with 20-50 GPA (wingless adult and nymph stages) one day prior to chemical application. Four pots with individual seedlings were used for each treatment. Test compounds (2 mg) were dissolved in 2 mL of acetone/MeOH (1:1) solvent, forming stock solutions of 1000 ppm test compound. The stock solutions were diluted 5× with 0.025% Tween 20 in H2O to obtain the solution at 200 ppm test compound. A hand-held aspirator-type sprayer was used for spraying a solution to both sides of […] leaves until runoff. Reference plants (solvent check) were sprayed with the diluent only containing 20% by volume of acetone/MeOH (1:1) solvent. Treated plants were held in a holding room for three days at approximately 25° C. and ambient relative humidity (RH) prior to grading. Evaluation was conducted by counting the number of live aphids per plant under a microscope. Percent Control was measured by using Abbott's correction formula (W.S. Abbott, “A Method of Computing the Effectiveness of an Insecticide” J. Econ. Entomol. 18 (1925), pp. 265-267) as follows.
Corrected % Control=100*(X−Y)/X • where • X=No. of live aphids on solvent check plants and • Y=No. of live aphids on treated plants

[3] = test system: Corn Earworm (CEW) (Helicoverpa zea); assay: Bioassay on Corn Earworm (CEW), 128-well diet tray assay; conditions: Helicoverpa zea, 168 h; for mortality at 50 µg/cm2: read-out: Rating CEW (% Control (or Mortality)); for mortality at 0.5 µg/cm2: 0.5 μg/cm2 on artificial diet, read-out: Rating CEW (% Control (or Mortality)), *Tested at 0.5 μg/cm2
Procedure: as §1
Bioassays on CEW (Helicoverpa zea)
as §2

[4] = 50 μg/cm2 on artificial diet, second instar larvae, five to seven days
[5] = second instar larvae, five to seven days

Compound	mortality at 50 µg/cm2 [1, 4]	mortality at 0.5 µg/cm2 [3, 5]	further results
COc1ccc(N/C(=N/C(=O)Nc2ccc(-c3ncn(-c4ccc(C(F)(F)F)cc4)n3)cc2)SCOC(=O)C(C)C)c(C)c1 [Molecule A1, (E)-((N′-(4-methoxy-2-methylphenyl)-N-((4-(1-(4-(trifluoromethyl)phenyl)-1H-1,2,4-triazol-3-yl)phenyl)carbamoyl)carbamimidoyl)thio) methyl isobutyrate]	50 to 100%		mortality at 200 ppm [2]: 0%; mortality at 50 µg/cm2 [3, 4]: 50 to 100%
COc1ccc(N/C(=N/C(=O)Nc2ccc(-c3ncn(-c4ccc(C(F)(F)F)cc4)n3)cc2)SC)c(C)c1 [Molecule A2, (Z)-Methyl N-(4-methoxy-2-methylphenyl)-N′-((4-(1-(4-(trifluoromethyl)phenyl)-1H-1,2,4-triazol-3-yl)phenyl)carbamoyl)carbamimidothioate]	50 to 100%		mortality at 200 ppm [2]: 0%; mortality at 50 µg/cm2 [3, 4]: 50 to 100%
CC(C)C(=O)OCS/C(=N\C(=O)Nc1ccc(-c2ncn(-c3ccc(OC(F)(F)C(F)(F)F)cc3)n2)cc1)Nc1ccccc1C(C)C [Molecule A6, (Z)-((N-(2-Isopropylphenyl)-N′-((4-(1-(4-(pentafluoroethoxy)phenyl)-1H-1,2,4-triazol-3-yl)phenyl)carbamoyl)carbamimidoyl)thio)methyl isobutyrate]	50 to 100%		mortality at 200 ppm [2]: 0%; mortality at 50 µg/cm2 [3, 4]: 50 to 100%
COc1cc(C)c(N/C(=N/C(=O)Nc2ccc(-c3ncn(-c4ccc(OC(F)(F)F)cc4)n3)cc2)SCOC(=O)C(C)C)c(C)c1 [Molecule A7, (E)-(N′-(2,6-Dimethyl-4-methoxyphenyl)-N-(4-(1-(4-(trifluoromethyoxy)phenyl)-1H-1,2,4-triazol-3-yl)phenylcarbamoyl)carbamimidoylthio)methyl isobutyrate]	50 to 100%		mortality at 200 ppm [2]: 0 to 80%; mortality at 50 µg/cm2 [3, 4]: 50 to 100%
Cc1cccc(C)c1N/C(S)=N/C(=O)Nc1ccc(-c2ncn(-c3ccc(OC(F)(F)F)cc3)n2)cc1 [Molecule A11]	50 to 100%		mortality at 200 ppm [2]: 0 to 80%; mortality at 50 µg/cm2 [3, 4]: 50 to 100%
Cc1ccc(C(C)C)c(N2C(=O)CS/C2=N\C(=O)Nc2ccc(-c3ncn(-c4ccc(OC(F)(F)F)cc4)n3)cc2)c1 [Molecule A87]	50 to 100%	50 to 100%	
Cc1ccc(N2C(=O)CS/C2=N\C(=O)Nc2ccc(-c3ncn(-c4ccc(OC(F)(F)F)cc4)n3)cc2)c(C(C)C)c1 [Molecule A88]	50 to 100%	50 to 100%	
Cc1ccc(F)c(N/C(S)=N/C(=O)Nc2ccc(-c3ncn(-c4ccc(OC(F)(F)F)cc4)n3)cc2)c1 [Molecule A89]	50 to 100%	50 to 100%	
O=C(/N=C1\SCC(=O)N1c1ccc(Cl)cc1Cl)Nc1ccc(-c2ncn(-c3ccc(OC(F)(F)F)cc3)n2)cc1 [Molecule A92]	50 to 100%	50 to 100%	
Cc1c(F)cccc1N1C(=O)CS/C1=N\C(=O)Nc1ccc(-c2ncn(-c3ccc(OC(F)(F)F)cc3)n2)cc1 [Molecule A93]	50 to 100%	50 to 100%	
Cc1ccc(F)c(N2C(=O)CS/C2=N\C(=O)Nc2ccc(-c3ncn(-c4ccc(OC(F)(F)F)cc4)n3)cc2)c1 [Molecule A94]	50 to 100%	50 to 100%	
CC(C)c1ccccc1N/C(S)=N/C(=O)Nc1ccc(-c2nnc(-c3ccc(OC(F)(F)C(F)(F)F)cc3)o2)cc1 [Molecule A96]	50 to 100%		mortality at 50 µg/cm2 [3, 4]: 0%
CCc1cccc(C)c1N/C(S)=N/C(=O)Nc1ccc(-c2ncn(-c3ccc(OC(F)(F)F)cc3)n2)cc1 [Molecule A97]	50 to 100%	50 to 100%	
COc1ccc(N/C(S)=N/C(=O)Nc2ccc(-c3ncn(-c4ccc(OC(F)(F)F)cc4)n3)cc2)c(C)c1 [Molecule A98]	50 to 100%	50 to 100%	
Cc1cc(C)cc(N/C(S)=N/C(=O)Nc2ccc(-c3ncn(-c4ccc(OC(F)(F)F)cc4)n3)cc2)c1 [Molecule A100]	50 to 100%	50 to 100%	
O=C(/N=C(\S)Nc1ccccc1Cc1ccccc1)Nc1ccc(-c2ncn(-c3ccc(OC(F)(F)F)cc3)n2)cc1 [Molecule A101]	50 to 100%	50 to 100%	
CCc1cccc(C)c1N1C(=O)CS/C1=N\C(=O)Nc1ccc(-c2ncn(-c3ccc(OC(F)(F)F)cc3)n2)cc1 [Molecule A103]	50 to 100%	50 to 100%	
Cc1cc(C)cc(N2C(=O)CS/C2=N\C(=O)Nc2ccc(-c3nnc(-c4ccc(OC(F)(F)F)cc4)o3)cc2)c1 [Molecule A104]	0%	50 to 100%	

Compound	mortality at 50 µg/cm2 [1, 4]	mortality at 0.5 µg/cm2 [3, 5]	further results
O=C(/N=C1\SCC(=O)N1c1ccccc1Cc1ccccc1)Nc1ccc(-c2ncn(-c3ccc(OC(F)(F)F)cc3)n2)cc1 [Molecule A105]	50 to 100%	50 to 100%	
Cc1cccc(N/C(S)=N/C(=O)Nc2ccc(-c3ncn(-c4ccc(OC(F)(F)F)cc4)n3)cc2)c1C(C)C [Molecule A106]	50 to 100%	50 to 100%	
CC(C)c1c(F)cccc1N/C(S)=N/C(=O)Nc1ccc(-c2ncn(-c3ccc(OC(F)(F)F)cc3)n2)cc1 [Molecule A107]	50 to 100%	50 to 100%	
Cc1cccc(N2C(=O)CS/C2=N\C(=O)Nc2ccc(-c3ncn(-c4ccc(OC(F)(F)F)cc4)n3)cc2)c1C(C)C [Molecule A108]	50 to 100%	50 to 100%	
CC(C)c1c(F)cccc1N1C(=O)CS/C1=N\C(=O)Nc1ccc(-c2ncn(-c3ccc(OC(F)(F)F)cc3)n2)cc1 [Molecule A109]	50 to 100%	50 to 100%	
COc1ccc(Cl)cc1N1C(=O)CS/C1=N\C(=O)Nc1ccc(-c2ncn(-c3ccc(OC(F)(F)F)cc3)n2)cc1 [Molecule A111]	50 to 100%	50 to 100%	
CC(C)c1ccccc1N/C(S)=N/C(=O)Nc1ccc(-c2ncn(-c3ccc(C(F)(F)C(F)(F)C(F)(F)F)cc3)n2)cc1 [Molecule A113]			mortality at 50 µg/cm2 [1]: 50 to 100%; mortality at 50 µg/cm2 [3]: 0%
CC(C)c1ccccc1N/C(S)=N/C(=O)Nc1ccc(-c2ccn(-c3ccc(OC(F)(F)F)cc3)n2)cc1 [Molecule A114]	50 to 100%	50 to 100%	
CC(C)c1ccccc1N1C(=O)CS/C1=N\C(=O)Nc1ccc(-c2ncn(-c3ccc(OC(F)(F)C(F)(F)F)cc3)n2)cc1 [Molecule A115]	50 to 100%	50 to 100%	
CC(C)c1cc(F)ccc1N/C(S)=N/C(=O)Nc1ccc(-c2ncn(-c3ccc(OC(F)(F)F)cc3)n2)cc1 [Molecule A116]	50 to 100%	50 to 100%	
CC(C)c1cc(F)ccc1N1C(=O)CS/C1=N\C(=O)Nc1ccc(-c2ncn(-c3ccc(OC(F)(F)F)cc3)n2)cc1 [Molecule A117]	50 to 100%	50 to 100%	
CC(C)c1cccc(N/C(S)=N/C(=O)Nc2ccc(-c3ncn(-c4ccc(OC(F)(F)F)cc4)n3)cc2)c1 [Molecule A118]	0%		mortality at 50 µg/cm2 [3, 4]: 0%
CC(C)n1nccc1N/C(S)=N/C(=O)Nc1ccc(-c2ncn(-c3ccc(OC(F)(F)F)cc3)n2)cc1 [Molecule A119]	50 to 100%	0 to 50%	
CC(C)c1cccc(N2C(=O)CS/C2=N\C(=O)Nc2ccc(-c3ncn(-c4ccc(OC(F)(F)F)cc4)n3)cc2)c1 [Molecule A120]	0%		mortality at 50 µg/cm2 [3, 4]: 0%
CC(C)n1nccc1N1C(=O)CS/C1=N\C(=O)Nc1ccc(-c2ncn(-c3ccc(OC(F)(F)F)cc3)n2)cc1 [Molecule A121]	50 to 100%	50 to 100%	
O=C(/N=C(\S)Nc1ccccc1C(F)(F)F)Nc1ccc(-c2ncn(-c3ccc(OC(F)(F)F)cc3)n2)cc1 [Molecule A127]	50 to 100%		mortality at 50 µg/cm2 [3, 4]: 0%
O=C(/N=C1\SCC(=O)N1c1ccccc1C(F)(F)F)Nc1ccc(-c2ncn(-c3ccc(OC(F)(F)F)cc3)n2)cc1 [Molecule A128]		50 to 100%	mortality at 0.5 µg/cm2 ([1]; 0.5 μg/cm2 on artificial diet, second instar larvae, five to seven days, read-out: Rating BAW (% Control (or Mortality)), *Tested at 0.5 μg/cm2): 50 to 100%
